Assay results reported in patent US8673889B2, “BLT2-mediated disease, BLT2 binding agent and the compound” (Ono Pharmaceutical Co., Ltd., priority 2004, dated 2014).

Key:
Format in all cases: cell-based
mBLT1 [1] = biological target: T1, mBLT1 (Mus musculus, UniProt O88855); assay: ERK phosphorylation (1) in mBLT1-expressing CHO cells; details: ligand 5 minutes, FIG. 5
T1 construct: expressed in transfected cells; host or cells: CHO cells

mBLT2 [2] = biological target: T2, mBLT2 (Mus musculus, UniProt Q9JJL9); assay: ERK phosphorylation (1) in mBLT2-expressing CHO cells; details: ligand 5 minutes, FIG. 5
T2 construct: mBLT2 ORF was amplified by PCR using a sense primer having BamHI restriction enzyme site; expressed in transfected cells
T2 sequence (Q9JJL9 1-360): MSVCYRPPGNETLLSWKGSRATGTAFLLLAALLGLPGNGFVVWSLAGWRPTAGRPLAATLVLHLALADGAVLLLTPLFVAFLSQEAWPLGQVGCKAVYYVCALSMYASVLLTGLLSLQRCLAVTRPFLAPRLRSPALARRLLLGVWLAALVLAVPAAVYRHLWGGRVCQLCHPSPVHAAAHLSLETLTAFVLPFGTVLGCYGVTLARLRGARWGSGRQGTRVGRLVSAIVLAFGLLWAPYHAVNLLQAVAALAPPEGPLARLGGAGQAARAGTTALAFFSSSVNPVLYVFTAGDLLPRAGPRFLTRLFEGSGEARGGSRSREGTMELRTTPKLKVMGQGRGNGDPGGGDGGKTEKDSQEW
Source text: (§1) mBLT2 ORF was amplified by PCR using a sense primer having BamHI restriction enzyme site (sense primer; 5′-[…]-3′ (SEQ ID NO.1)) and an antisense primer having EcoRI restriction enzyme site (antisense primer; 5′-[…]-3′ (SEQ ID NO.2)). The PCR product was digested with BamHI and EcoRI and inserted in expression plasmid (pcDNA3 Invitrogen). The inserted sequence was confirmed by the DNA sequence. Plasmid DNA ([…]) was transfected into CHO cells cultured in Ham's F-12 medium containing 10% fetal bovine serum and antibiotic (streptomycin (100 μg/mL) and penicillin (100 μg/L)) in cell culture plates (6 cm). The resistant strains were obtained by culturing for 2 weeks in the existence of antibiotic (G418 [Wako], 1 mg/mL). The stable expressing strains were obtained by culturing 19 obtained resistant strains with limiting dilution method.

mBLT1 [3] = biological target: T1, mBLT1; assay: Measurement of intracellular Ca2+ concentration in mBLT1-expressing CHO cells; details: FIG. 4
[4] = system: mouse primary culture keratinocytes; assay: ERK phosphorylation (2) in mouse primary culture keratinocytes; details: FIG. 7
mock = assay: Measurement of intracellular Ca2+ concentration in mock cells; details: FIG. 4
Experimental: (§2) mBLT2-expressing CHO cells prepared by Biological Example 3 were cultured in modified Hepes-Tyrode's BSA buffer (Hepes-NaOH (25 mM, pH7.4), NaCl (140 mM), KCl (2.7 mM), CaCl2(10 nM), NaHCO3(12 mM), D-Glucose (5.6 mM), NaH2PO4(0.37 mM), MgCl2(0.49 mM), cremophour (0.01%), fatty acid-free BSA (fraction V, 0.1w/v %)) containing fluorochrome (Fura-2 AM [Dojin], 3 μm) at 37° C. for 2 hours to make to take fluorochrome. These cells were washed 2 times and resuspended (10^6 cells/mL) in Hepes-Tyrode's BSA buffer. The cell suspension (0.5 mL) was applied to fluorescent intensity meter (CAF-100 system [Jasco]). Dimethylsulfoxide (DMSO) solution (5 μL) containing ligand was added to the cell suspension, of which the intracellular calcium concentration was monitored (excitation wavelength 340 nm and 380 nm and fluorescent wave-length 510 nm).

mBLT2 [5] = biological target: T2, mBLT2; assay: Measurement of intracellular Ca2+ concentration in mBLT2-expressing CHO cells; details: FIG. 4, read-out: EC50 value, rise of the intracellular calcium concentration
Source text: as §1, with “The stable expressing strains were obtained by culturing 19 obtained resistant strains with limiting dilution method.” left out
as §2, with “These cells were washed 2 times and resuspended (10^6 cells/mL) in Hepes-Tyrode's BSA buffer. The cell suspension (0.5 mL) was applied to fluorescent intensity meter (CAF-100 system [Jasco]).” left out

T1 sequence (O88855 whole entry): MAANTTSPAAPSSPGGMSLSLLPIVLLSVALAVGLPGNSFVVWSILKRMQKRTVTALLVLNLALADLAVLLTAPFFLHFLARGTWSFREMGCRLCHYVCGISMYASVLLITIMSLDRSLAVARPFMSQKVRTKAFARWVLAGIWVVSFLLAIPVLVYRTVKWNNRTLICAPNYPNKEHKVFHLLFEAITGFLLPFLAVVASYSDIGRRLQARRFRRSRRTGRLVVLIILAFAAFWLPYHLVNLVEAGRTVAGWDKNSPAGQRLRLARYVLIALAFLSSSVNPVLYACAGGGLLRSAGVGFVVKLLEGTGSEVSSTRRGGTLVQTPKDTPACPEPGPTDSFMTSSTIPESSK

- ERK phosphorylation (mBLT1 [1]): induced
- ERK phosphorylation (mBLT2 [2]): induced
- rise of intracellular calcium concentration (mBLT1 [3]): not rised
- EC50 (mBLT2 [5]): 21 nM
SMILES: CCCCC(=O)N(Cc1ccc(-c2ccccc2C(=O)O)cc1)c1ccccc1 [compound A, 4′-{[pentanoyl(phenyl)amino]methyl}-1,1′-biphenyl-2-carboxylic acid]
- ERK phosphorylation [4]: induced ERK phosphorylation
- rise of intracellular calcium concentration (mock): not rised
